Consider 6 molecules from patent US7653428B2, “Methods for diagnosing a neurodegenerative condition” (The Brigham and Women's Hospital, Inc., priority 2000, dated 2010).

Data set [1] deals with hTSLP (human total soluble lens protein). Nature of the data set: Thioflavin-T fluorescence (total β-sheet content of protein mixture). It counts as biochemical. The conditions noted are these: added during incubation of hTSLP with hAβ1-42. How it is done:
Fluorescence assays were conducted according to a standard protocols.
To determine whether the Aβ-induced aggregation of hTSLP was accompanied by conformational changes, the total β-sheet content of the protein mixture was measured by monitoring thioflavin-T fluorescence.

For data set [2] the test system is unchanged. Nature of the data set: Precipitation study of hTSLP incubated with hAβ1-42. Type of data set: biochemical. To be noted: added during incubation of hTSLP with hAβ1-42. Here is the method:
Solutions of hTSLP (1 mg/ml) were incubated with or without hAβ1-42 (10 μM; 45 μg/ml) for 0 or 7 days. The resulting mixtures were then centrifuged at 15,000×g for 15 min and separated into pellet and supernatant fractions. The amount of pelleted protein was calculated by subtracting the supernatant protein concentration on Day 7 from the initial concentration on Day 0.

Data set [3] has the same test system. Nature of the data set: Turbidity assay of human total soluble lens protein aggregation (absorbance at 400 nm). It counts as biochemical. The conditions noted are these: for effect on Aβ-potentiated hTSLP aggregation: added during incubation of hTSLP with hAβ1-42; for promotion of hTSLP/hTLP aggregation: hTSLP 1 mg/ml, 37° C. in the dark, peptide added. Here is the method: Human lenses with intact capsules were dissected from whole globes and homogenized in 1 mL HPLC water. The homogenate was centrifuged for at 100,000×g for 1 hour at 4° C. and the supernatant utilized as hTLSP. Protein concentration was determined using a commercially available kit (Pierce). The final hTSLP concentration was 1 mg/mL.
Test solutions of hTSLP (1 mg/ml) were plated to a final volume of 200 μL per well in 96 well microtiter plates with black sidewalls. Peptides and/or inhibitors were added to these solutions as indicated. Plates were incubated in the dark at 37° C. under humidified, CO2-balanced conditions. Turbidity (optical density) was assessed on a SpectraMax-Plus spectrophotometric plate reader set at a wavelength of 400 nm.
(§1) Aggregation experiments were carried out in 96 well black micro titer plates, in the 2dark. Depending on the experiment, a combination of 20 μL of 10× lenticular protein (final concentration 1 mg/mL), 20 μL of 10× chelator solution (final concentration 200 μM), 20 μL of Catalase and/or SOD (final concentrations of 500 U/mL and 100 U/mL respectively), 20 μL of Aβ (final concentration of 10 μM), 20 μL of metal solution (final concentration 1 μM), and an amount of PBS buffer to bring the total volume in the well to 200 μL. hTLP aggregation or bTLP aggregation was monitored by observing an increase in absorbance at 400 nm using a Spectramax UV-V is spectrophotometer.

Data set [4] concerns bTLP (bovine lens protein). Nature of the data set: Spontaneous bovine lens protein (bTLP) aggregation, absorbance at 400 nm. Type of data set: biochemical. The conditions noted are these: 37° C. in the dark. Here is the method:
Filtered phosphate buffered saline solution (pH 7.4) was treated with chelex and used to make stock solutions (10×) for all reagents (chemical or biological). Protein stock solution at a concentration of 10 mg/mL was prepared from the supernatant as described above. Stock solutions of chelators (ethylenediaminetetraacetic acid (EDTA), diethylenetriaminepentaacetic acid (DTPA), or triethylenetetramine (TETA)) were made up at a concentration of 2 mM freshly prepared in PBS. Stock solutions of Catalase and SOD were freshly prepared in PBS to have an activity of 5000 U/mL and 1000 U/mL respectively. Aβ was prepared as a suspension (100 uM) in PBS or HPLC water by sonicating for three minutes such that only monomers or dimers remained. Metals were prepared as a 10 μM solution; Cu is prepared as Cu:glycine (1:6) from copper sulfate.
as §1
The influence of Reactive Oxygen Species ((ROS), Cu/Zn Superoxide Dismutase (SOD), Catalase (Cat)) on spontaneous bTLP aggregation was analyzed.

For data set [5] the following is noted: cited from earlier work.

In the case of “superoxide dismutase: antioxidant scavenging enzyme”, in data set [1], the “effect on increased β-sheet content” value is recorded as “blocked”. Moreover, the “effect on protein precipitation” value in data set [2] is “blocked”. Besides, the “effect on Aβ-potentiated hTSLP aggregation” value in data set [3] was “abolished aggregation”. Further, the “effect on bTLP aggregation” value in data set [4] is “reduces the extent of bTLP aggregation”.
On to “recombinant human insulin: recombinant human insulin, negative control of approximately the same molecular weight as Aβ”, for which the “promotion of hTSLP/hTLP aggregation” value is reported as “none” in data set [3] and “no effect on hTLP aggregation” in data set [3] (listed as insulin).
With “synthetic rat Aβ1-40: synthetic rat β-amyloid peptide 1-40, relatively redox inert control peptide (DAEFGHDSGFEVRHQKLVFFAEDVGSNKGAIIGLMVGGVV; Amyloid-beta protein 40; UniProt P08592 672-711, looked up)”, the “promotion of hTSLP/hTLP aggregation” value in data set [3] was “none”.
For `O=C(O)CN(CCN(CC(=O)O)CC(=O)O)CC(=O)O` [EDTA, ethylenediaminetetraacetic acid], the “effect on bTLP aggregation” value in data set [4] was “reduces the extent of bTLP aggregation”.
On to `O=C(O)CN(CCN(CC(=O)O)CC(=O)O)CCN(CC(=O)O)CC(=O)O` [DTPA, diethylenetriaminepentaacetic acid], for which the “absolute log Ks for Cu” value in data set [5] (Cu) is reported as 22.0. Besides, the “absolute log Ks for Fe” value in data set [5] (Fe) is on record as 28.1. Also, in data set [5] (Zn), the “absolute log Ks for Zn” value is recorded as 19.3. Further, the “effect on increased β-sheet content” value in data set [1] was “blocked”. In addition, in data set [2], the “effect on protein precipitation” value is given as “blocked”. Moreover, the “effect on Aβ-potentiated hTSLP aggregation” value in data set [3] was “abolished aggregation”. Also, in data set [4], the “effect on bTLP aggregation” value is listed as “reduces the extent of bTLP aggregation”.

B1: catalase: antioxidant scavenging enzyme (protein, UniProt P04040 2-527, looked up)
Catalase: ADSRDPASDQMQHWKEQRAAQKADVLTTGAGNPVGDKLNVITVGPRGPLLVQDVVFTDEMAHFDRERIPERVVHAKGAGAFGYFEVTHDITKYSKAKVFEHIGKKTPIAVRFSTVAGESGSADTVRDPRGFAVKFYTEDGNWDLVGNNTPIFFIRDPILFPSFIHSQKRNPQTHLKDPDMVWDFWSLRPESLHQVSFLFSDRGIPDGHRHMNGYGSHTFKLVNANGEAVYCKFHYKTDQGIKNLSVEDAARLSQEDPDYGIRDLFNAIATGKYPSWTFYIQVMTFNQAETFPFNPFDLTKVWPHKDYPLIPVGKLVLNRNPVNYFAEVEQIAFDPSNMPPGIEASPDKMLQGRLFAYPDTHRHRLGPNYLHIPVNCPYRARVANYQRDGPMCMQDNQGGAPNYYPNSFGAPEQQPSALEHSIQYSGEVRRFNTANDDNVTQVRAFYVNVLNEEQRKRLCENIAGHLKDAQIFIQKKAVKNFTEVHPDYGSHIQALLDKYNAEKPKNAIHTFVQSGSHLAAREKANL
For B1, the “effect on increased β-sheet content” value in data set [1] was “blocked”. Besides, the “effect on protein precipitation” value in data set [2] is listed as “blocked”. Also, the “effect on Aβ-potentiated hTSLP aggregation” value in data set [3] was “abolished aggregation”. In addition, the “effect on bTLP aggregation” value in data set [4] is given as “reduces the extent of bTLP aggregation”.
